Source: PMC7206119, “RIP1 inhibition blocks inflammatory diseases but not tumor growth or metastases” (Cell Death and Differentiation, 2019)

Key:
Assay in all cases: biochemical
Set-up in all cases: Thermo Fisher SelectScreen kinase panel: Z'-LYTE and Adapta activity, LanthaScreen binding
BRSK1 = BRSK1 (Homo sapiens, UniProt Q8TDC3)
In short: (§1)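 GNE684 profiled at 10 µM across 221 kinases with Z'-LYTE and Adapta activity and LanthaScreen binding formats. Also screened at 10 µM against 468 kinases in KINOMEscan scanMAX binding assay.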

CHK2 = target: T1, CHK2 (Homo sapiens, UniProt O96017)
T1 construct: gene CHEK2
In short: as §1

CK2_alpha1 = target: T2, CK2_alpha1 (Homo sapiens, UniProt P68400)
T2 construct: gene CSNK2A1
In short: as §1

DAPK1 = DAPK1 (Homo sapiens, UniProt P53355)
In short: as §1

EPHB1 = EPHB1 (Homo sapiens, UniProt P54762)
In short: as §1

ERBB2 = ERBB2 (Homo sapiens, UniProt P04626)
In short: as §1

FAK = target: T3, FAK (Homo sapiens, UniProt Q05397)
T3 construct: gene PTK2
In short: as §1

IRR = target: T4, IRR (Homo sapiens, UniProt P14616)
T4 construct: gene INSRR
In short: as §1

LTK = LTK (Homo sapiens, UniProt P29376)
In short: as §1

MAPKAPK3 = MAPKAPK3 (Homo sapiens, UniProt Q16644)
In short: as §1

MARK3 = MARK3 (Homo sapiens, UniProt P27448)
In short: as §1

MEK1 = target: T5, MEK1 (Homo sapiens, UniProt Q02750)
T5 construct: gene MAP2K1
In short: as §1

MEKK2 = target: T6, MEKK2 (Homo sapiens, UniProt Q9Y2U5)
T6 construct: gene MAP3K2
In short: as §1

Mink1 = Mink1 (Homo sapiens, UniProt Q8N4C8)
In short: as §1

NEK1 = NEK1 (Homo sapiens, UniProt Q96PY6)
In short: as §1

PAK3 = PAK3 (Homo sapiens, UniProt O75914)
In short: as §1

PKC_theta = target: T7, PKC_theta (Homo sapiens, UniProt Q04759)
T7 construct: gene PRKCQ
In short: as §1

PLK1 = PLK1 (Homo sapiens, UniProt P53350)
In short: as §1

PhK_gamma1 = target: T8, PhK_gamma1 (Homo sapiens, UniProt Q16816)
T8 construct: gene PHKG1
In short: as §1

RET = RET (Homo sapiens, UniProt P07949)
In short: as §1

RIPK3 = RIPK3 (Homo sapiens, UniProt Q9Y572)
In short: as §1

ROCK2 = ROCK2 (Homo sapiens, UniProt O75116)
In short: as §1

TAO2 = target: T9, TAO2 (Homo sapiens, UniProt Q9UL54)
T9 construct: gene TAOK2
In short: as §1

MARK3, sequence (P27448 whole entry): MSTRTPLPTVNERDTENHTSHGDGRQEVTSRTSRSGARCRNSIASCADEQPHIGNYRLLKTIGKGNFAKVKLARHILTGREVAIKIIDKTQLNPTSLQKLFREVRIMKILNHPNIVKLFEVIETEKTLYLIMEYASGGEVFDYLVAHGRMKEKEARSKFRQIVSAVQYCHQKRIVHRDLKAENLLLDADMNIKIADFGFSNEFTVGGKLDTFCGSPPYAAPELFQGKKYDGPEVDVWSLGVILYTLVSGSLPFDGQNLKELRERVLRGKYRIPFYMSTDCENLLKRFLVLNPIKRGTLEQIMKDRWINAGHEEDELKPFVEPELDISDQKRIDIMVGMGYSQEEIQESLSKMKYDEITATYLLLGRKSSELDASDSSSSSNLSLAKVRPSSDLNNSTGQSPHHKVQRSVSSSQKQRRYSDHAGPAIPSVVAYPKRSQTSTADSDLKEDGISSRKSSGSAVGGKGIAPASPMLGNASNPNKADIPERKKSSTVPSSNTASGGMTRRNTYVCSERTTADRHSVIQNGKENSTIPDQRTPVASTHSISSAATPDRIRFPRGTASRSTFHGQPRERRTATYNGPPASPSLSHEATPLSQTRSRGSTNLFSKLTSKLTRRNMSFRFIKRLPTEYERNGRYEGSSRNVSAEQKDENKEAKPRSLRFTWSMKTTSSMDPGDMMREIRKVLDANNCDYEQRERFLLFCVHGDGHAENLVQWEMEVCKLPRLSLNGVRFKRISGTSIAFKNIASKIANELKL
T8 sequence (Q16816 whole entry): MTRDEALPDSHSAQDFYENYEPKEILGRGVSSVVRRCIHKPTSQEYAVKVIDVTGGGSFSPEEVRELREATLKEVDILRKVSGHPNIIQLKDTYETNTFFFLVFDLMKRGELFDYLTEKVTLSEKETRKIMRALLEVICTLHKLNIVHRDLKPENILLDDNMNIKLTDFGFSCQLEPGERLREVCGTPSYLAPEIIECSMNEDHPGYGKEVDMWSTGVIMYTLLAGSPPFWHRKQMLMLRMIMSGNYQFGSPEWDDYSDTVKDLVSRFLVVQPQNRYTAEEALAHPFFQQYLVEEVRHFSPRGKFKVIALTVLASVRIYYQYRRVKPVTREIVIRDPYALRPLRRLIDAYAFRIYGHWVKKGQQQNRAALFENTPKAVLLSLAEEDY
BRSK1, sequence (Q8TDC3 whole entry): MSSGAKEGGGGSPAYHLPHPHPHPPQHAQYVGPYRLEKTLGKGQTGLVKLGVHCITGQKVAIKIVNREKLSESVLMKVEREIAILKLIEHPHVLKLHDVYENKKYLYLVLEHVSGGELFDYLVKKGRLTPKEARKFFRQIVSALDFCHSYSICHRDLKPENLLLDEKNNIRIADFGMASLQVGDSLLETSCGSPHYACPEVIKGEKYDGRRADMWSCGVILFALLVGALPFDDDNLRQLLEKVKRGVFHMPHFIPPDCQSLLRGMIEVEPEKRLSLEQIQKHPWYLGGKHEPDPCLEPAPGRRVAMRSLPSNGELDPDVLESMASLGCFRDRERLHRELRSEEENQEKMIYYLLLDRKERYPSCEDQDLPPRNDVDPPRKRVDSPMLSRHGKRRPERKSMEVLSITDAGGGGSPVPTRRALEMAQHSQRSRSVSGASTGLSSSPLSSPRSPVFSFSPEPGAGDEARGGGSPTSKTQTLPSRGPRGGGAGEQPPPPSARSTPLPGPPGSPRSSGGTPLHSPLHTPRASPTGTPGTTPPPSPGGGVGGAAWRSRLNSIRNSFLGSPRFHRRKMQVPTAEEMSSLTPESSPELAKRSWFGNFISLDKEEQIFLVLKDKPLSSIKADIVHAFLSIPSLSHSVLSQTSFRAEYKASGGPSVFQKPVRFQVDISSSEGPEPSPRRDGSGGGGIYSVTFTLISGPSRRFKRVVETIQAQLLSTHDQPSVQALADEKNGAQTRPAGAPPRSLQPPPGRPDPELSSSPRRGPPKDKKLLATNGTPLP
T2 sequence (P68400 whole entry): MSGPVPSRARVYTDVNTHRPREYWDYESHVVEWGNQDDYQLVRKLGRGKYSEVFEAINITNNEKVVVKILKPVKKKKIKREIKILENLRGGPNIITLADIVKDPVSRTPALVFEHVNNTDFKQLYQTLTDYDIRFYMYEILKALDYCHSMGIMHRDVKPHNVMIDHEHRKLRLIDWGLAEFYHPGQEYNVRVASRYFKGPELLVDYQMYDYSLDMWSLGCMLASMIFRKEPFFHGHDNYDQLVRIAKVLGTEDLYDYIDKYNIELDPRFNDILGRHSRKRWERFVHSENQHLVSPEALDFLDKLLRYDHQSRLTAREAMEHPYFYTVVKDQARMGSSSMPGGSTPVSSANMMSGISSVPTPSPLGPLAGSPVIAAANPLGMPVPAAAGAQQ
EPHB1, sequence (P54762 whole entry): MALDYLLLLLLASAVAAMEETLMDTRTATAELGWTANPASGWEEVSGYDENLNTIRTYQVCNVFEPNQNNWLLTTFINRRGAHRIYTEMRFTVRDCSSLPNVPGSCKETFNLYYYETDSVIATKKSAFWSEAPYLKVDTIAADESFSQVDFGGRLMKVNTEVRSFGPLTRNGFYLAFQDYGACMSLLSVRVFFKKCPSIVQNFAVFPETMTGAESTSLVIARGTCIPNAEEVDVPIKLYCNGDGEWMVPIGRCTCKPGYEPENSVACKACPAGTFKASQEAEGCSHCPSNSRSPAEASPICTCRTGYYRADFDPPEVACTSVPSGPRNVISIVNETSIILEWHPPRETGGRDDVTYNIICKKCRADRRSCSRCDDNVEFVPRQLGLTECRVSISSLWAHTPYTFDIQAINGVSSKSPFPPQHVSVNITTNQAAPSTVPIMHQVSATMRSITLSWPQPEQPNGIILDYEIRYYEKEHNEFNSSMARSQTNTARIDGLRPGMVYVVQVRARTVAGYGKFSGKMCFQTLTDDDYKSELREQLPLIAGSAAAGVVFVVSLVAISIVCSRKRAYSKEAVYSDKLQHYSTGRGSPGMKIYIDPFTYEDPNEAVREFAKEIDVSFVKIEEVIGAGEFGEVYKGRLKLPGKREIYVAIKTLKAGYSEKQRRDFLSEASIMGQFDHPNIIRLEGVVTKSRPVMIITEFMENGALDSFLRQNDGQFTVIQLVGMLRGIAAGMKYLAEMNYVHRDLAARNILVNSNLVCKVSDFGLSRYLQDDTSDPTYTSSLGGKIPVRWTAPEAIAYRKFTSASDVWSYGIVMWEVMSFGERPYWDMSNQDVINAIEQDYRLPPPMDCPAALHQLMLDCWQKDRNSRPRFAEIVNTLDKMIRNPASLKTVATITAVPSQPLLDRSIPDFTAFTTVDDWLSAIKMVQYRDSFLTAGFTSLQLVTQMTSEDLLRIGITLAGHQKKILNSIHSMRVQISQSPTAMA
Mink1, sequence (Q8N4C8 whole entry): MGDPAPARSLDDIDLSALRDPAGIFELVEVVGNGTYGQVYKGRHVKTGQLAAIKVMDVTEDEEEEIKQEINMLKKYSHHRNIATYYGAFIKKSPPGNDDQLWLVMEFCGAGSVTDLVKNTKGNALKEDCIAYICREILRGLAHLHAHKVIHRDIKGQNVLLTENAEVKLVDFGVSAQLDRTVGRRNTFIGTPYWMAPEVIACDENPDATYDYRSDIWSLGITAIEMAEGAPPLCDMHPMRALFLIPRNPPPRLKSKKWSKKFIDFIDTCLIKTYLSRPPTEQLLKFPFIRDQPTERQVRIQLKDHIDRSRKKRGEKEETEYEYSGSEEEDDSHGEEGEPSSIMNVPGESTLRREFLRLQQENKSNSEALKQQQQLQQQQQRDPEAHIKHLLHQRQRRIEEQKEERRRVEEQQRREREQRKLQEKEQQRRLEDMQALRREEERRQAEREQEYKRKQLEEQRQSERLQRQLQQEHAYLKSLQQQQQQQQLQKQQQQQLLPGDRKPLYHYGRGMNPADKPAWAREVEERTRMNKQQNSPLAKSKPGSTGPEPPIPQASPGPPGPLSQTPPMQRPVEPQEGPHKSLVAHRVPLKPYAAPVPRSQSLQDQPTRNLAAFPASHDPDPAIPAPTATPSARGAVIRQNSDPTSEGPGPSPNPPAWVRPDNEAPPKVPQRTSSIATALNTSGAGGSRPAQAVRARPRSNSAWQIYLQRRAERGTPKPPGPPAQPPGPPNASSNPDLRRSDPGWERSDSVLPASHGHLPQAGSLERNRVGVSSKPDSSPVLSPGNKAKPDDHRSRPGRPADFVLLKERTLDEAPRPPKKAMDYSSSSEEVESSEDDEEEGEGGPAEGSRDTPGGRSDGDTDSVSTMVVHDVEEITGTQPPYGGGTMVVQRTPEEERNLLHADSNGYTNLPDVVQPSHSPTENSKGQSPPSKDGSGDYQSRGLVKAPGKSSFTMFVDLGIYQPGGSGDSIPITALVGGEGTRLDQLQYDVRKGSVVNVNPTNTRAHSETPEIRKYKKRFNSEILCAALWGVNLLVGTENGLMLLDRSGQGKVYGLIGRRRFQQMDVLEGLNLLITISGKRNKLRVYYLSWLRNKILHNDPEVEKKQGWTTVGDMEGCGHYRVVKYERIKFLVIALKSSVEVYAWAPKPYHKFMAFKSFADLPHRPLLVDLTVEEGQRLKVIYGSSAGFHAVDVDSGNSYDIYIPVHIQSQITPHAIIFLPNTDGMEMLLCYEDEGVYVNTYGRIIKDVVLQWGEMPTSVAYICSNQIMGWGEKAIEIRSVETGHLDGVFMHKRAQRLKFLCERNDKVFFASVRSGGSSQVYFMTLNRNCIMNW
MAPKAPK3, sequence (Q16644 whole entry): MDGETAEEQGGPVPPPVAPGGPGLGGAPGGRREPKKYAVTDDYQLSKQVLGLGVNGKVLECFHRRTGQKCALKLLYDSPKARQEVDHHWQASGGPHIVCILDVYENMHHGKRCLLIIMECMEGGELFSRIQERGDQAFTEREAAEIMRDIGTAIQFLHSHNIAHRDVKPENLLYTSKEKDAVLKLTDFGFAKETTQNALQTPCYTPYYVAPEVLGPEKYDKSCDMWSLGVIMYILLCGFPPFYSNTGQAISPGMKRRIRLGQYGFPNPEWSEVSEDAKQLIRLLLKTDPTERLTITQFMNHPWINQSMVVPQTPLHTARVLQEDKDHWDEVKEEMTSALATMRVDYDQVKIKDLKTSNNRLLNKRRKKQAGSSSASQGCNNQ

With COc1cc2c(cn1)N(C)C(=O)[C@@H](NC(=O)c1nc3n(n1)[C@H](c1ccccc1)CC3)CC2 [GNE684, (S)-N-((S)-7-methoxy-1-methyl-2-oxo-2,3,4,5-tetrahydro-1H-pyrido[3,4-b]azepin-3-yl)-5-phenyl-6,7-dihydro-5H-pyrrolo[1,2-b][1,2,4]triazole-2-carboxamide] the inhibition at 10 µM (BRSK1) was 2.5%, the inhibition at 10 µM (CHK2) was 5% and the inhibition at 10 µM (CK2_alpha1) was 3.5%. The inhibition at 10 µM (DAPK1) was -11.5%, the inhibition at 10 µM (EPHB1) was 3% and the inhibition at 10 µM (ERBB2) was -5.5%. It also gave an inhibition at 10 µM (FAK) of 7.5%, an inhibition at 10 µM (IRR) of 12% and an inhibition at 10 µM (LTK) of 7.5%. For the same molecule, the inhibition at 10 µM (MAPKAPK3) was 3%, the inhibition at 10 µM (MARK3) was -2.5% and the inhibition at 10 µM (MEK1) was -7.5%. It also gave an inhibition at 10 µM (MEKK2) of 7%, an inhibition at 10 µM (Mink1) of 18.5% and an inhibition at 10 µM (NEK1) of 7.5%. For the same molecule, the inhibition at 10 µM (PAK3) was 6%, the inhibition at 10 µM (PKC_theta) was -5% and the inhibition at 10 µM (PLK1) was 4%. It also gave an inhibition at 10 µM (PhK_gamma1) of 0%, an inhibition at 10 µM (RET) of 4% and an inhibition at 10 µM (RIPK3) of -3%. The inhibition at 10 µM (ROCK2) was 1.5% and the inhibition at 10 µM (TAO2) was 1%.
